Assay results as given in PubChem BioAssay AID488823 (NMMLSC, 2010).

System: S. cerevisiae LAP4-GFP strain, flow cytometry fluorescence
Experiment: LAP4-GFP modulation potency, analog picks, SAR follow-up, cell-based, cherry pick 3, flow cytometry (AID 488823)

## Cc1ccc2c(Cl)cc(Cl)c(O)c2n1
  EC50: 5.38 µM
